The test system of one data set is LY180 strains. The experiment in a line: Growth of LY180 strains carrying plasmids in the presence of furfural. Type of data set: cell-based, Escherichia coli. Particulars: 0.10% furfural, after 48 hours. The method, then: LY 180 strains were grown on LB glucose ampicillin plates overnight and each were used to inoculate a tube of AM1 xylose to 3-4 OD. This culture was immediately used to inoculate […] capped tubes containing 4 mL AM1 5% xylose, ampicillin, and an indicated concentration of furfural to 0.05 initial OD. Cultures were grown in a water bath at 37 C and OD 500 nm readings were taken after 24 and 48 hours.
PntAB is a proton translocating transhydrogenase that is not known to function during fermentative growth but is potentially capable of increasing the pool of NADPH (52). In examples 2 and 3, the E. coli […] transhydrogenase PntAB was cloned into pTrc99a and confirmed by sequencing. PntAB with native ribosomal binding site and rho dependent terminator was polymerase chain reaction (PCR) amplified from E. coli strain LY180 genomic DNA using primers with HindIII digestible ends. The PCR product and pTrc099a were HindIII digested, purified using a Qiagen Qiaprep Spin Miniprep Kit, and ligated together using T4 Quick DNA ligase. After transforming the resulting vector into TOP10F′, the plasmid was extracted and used to transform LY180. Orientation was verified by PCR analysis. The empty vector served as a control. Inducer was added prior to inoculation. The growth of LY180 strains carrying plasmids having increasing expression of pntA and pntB genes was compared (FIG. 2A-2B). […]

Data set [1] deals with E. coli LY180. The data set is described as follows: Microarray analysis of LY180 after furfural addition. Type of data set: cell-based, Escherichia coli. The procedure:
Cultures were grown in small fermenters to a density of 670 mg dcw liter^−1. An initial sample was removed that served as a control. Furfural was immediately added from a 50 g liter^−1 aqueous stock (0.5 g liter^−1 final concentration) and incubation continued for 15 minutes prior to a second sampling. Samples were rapidly cooled in an ethanol-dry ice bath, harvested by centrifugation at 4° C., resuspended in Qiagen RNA Later and stored at −80° C. RNA was extracted using a Qiagen RNeasy Mini Kit, treated with DNase I and purified by phenol/chloroform extraction and ethanol precipitation. RNA was sent to NimbleGen (Madison, Wis.) for microarray comparisons using probes designed for E. coli K12. Each sample consisted of pooled material from four fermenters. The complete experiment was performed twice and the data was averaged (8 fermentors). Data was analyzed using ArrayStar (DNA Star, Madison, Wis.) and SimPheny software (Genomatica Inc., San Diego, Calif.). Expression ratios are presented as the average of the two pooled datasets.
Message levels were compared in actively growing cells before and 15 min after the addition of 0.5 g liter^−1 furfural. A water control was also included for comparison. […]

Data set [2] can be described thus: Stability of furfural in mineral salts medium. The data set is classed as physicochemical. As to conditions: 48 incubation at 37 C. The method, then:
Protective concentrations of cysteine (0.05 mM) were 200-fold lower than that of 1 g liter^−1 furfural (10 mM).

The subject of data set [3] is E. coli LY180. The data set is classed as cell-based, Escherichia coli. As to conditions: for furfural resistance (growth of LY180) with individual amino acid: amino acid 0.1 mM, 50 g liter^-1 xylose, 37 C, 48 hours; for furfural resistance (growth of LY180) with individual amino acid / relief of furfural inhibition of growth by alternative sulfur source: AM1 medium. The method, then: Furfural tolerance was examined by measuring growth in standing tubes with 4 mL total volume of AM1 and 50 g liter^−1 filter-sterilized xylose as described previously (48). Tubes were incubated at 37° C. and measured after 24 hours and 48 hours. Values reported are an average of 4 measurements.
All 20 amino acids were individually tested for their ability to improve the growth of LY180 in AM1 mineral salts medium (FIG. 9A). A concentration of 0.1 mM was selected roughly based on the cellular content of individual amino acids (50).
During growth in AM1 medium containing 1 g liter^−1 furfural, the effects of alternative sulfur sources (L-cysteine, D-cysteine, taurine, and sodium thiosulfate) that enter metabolism at different levels of reduction (FIG. 9D) was compared. Note that 4 NADPH molecules and two reductase enzymes (CysH and CysIJ) are required to fully reduce sulfate prior to assimilation into cysteine. […] D-cysteine cannot be incorporated directly and is first catabolized to H2S (49). Thiosulfate also serves as a source of reduced sulfur for incorporation by CysM (47). Taurine is catabolized to sulfite in the cytoplasm and must be reduced by sulfite reductase (CysIJ and 3 NADPH molecules) prior to assimilation into cysteine (54).

The test system of data set [4] is LY180. The experiment in a line: pH-controlled xylose fermentation with 5-HMF, LY180. The data set is classed as cell-based, Escherichia coli. As to conditions: 1.0 g l^-1 5-HMF, 100 g l^-1 xylose. The method, then: (§1) Strains and plasmids used in this study have been previously described (70 and 23). These include LY180 (an ethanologenic derivative of E. coli), EMFR9 (furfural-tolerant derivative of LY180), LY180ΔyqhD, LY180ΔdkgA, LY180ΔyqhD ΔdkgA, pLOI4301 containing yqhD. Plasmids pLOI4303 containing dkgA (48), and pLOI4316 containing pntAB (70) were also used. Cultures were grown at 37° C. in AM1 minimal media (23) containing 20 g 1^−1 xylose (solid medium), 50 g l^−1 xylose (Bioscreen C growth analyzer and tube cultures), or 100 g 1^−1 (pH-controlled fermentations).
(§2) For fermentation experiments, seed cultures of LY180 and EMFR9 were grown overnight in small fermentors (37° C., 200 rpm) containing 350 ml of AM1 medium. Broth was maintained at pH 6.5 by the automatic addition of 2 N KOH. Upon reaching mid-log phase, experimental fermenters were inoculated to an initial cell density of 0.1 OD550nm. (33 mg dry cell weight 1^−1). Cell mass (OD550nm) and furan levels were monitored at 12-h intervals as described previously (20).

The next data set relates to EMFR9. The experiment in a line: pH-controlled xylose fermentation with 5-HMF, EMFR9. Type of data set: cell-based, Escherichia coli. The method, then: as §1, §2
The test system of data set [5] is LY180. The data set is described as follows: 5-HMF tolerance in tube cultures, LY180, with cysteine supplements. The data set is classed as cell-based, Escherichia coli. The method, then: FIG. 17. Effect of L-cysteine on 5-HMF tolerance of LY180. Experiments were performed in tube cultures with AM1 medium containing 50 g l^−1 xylose and 5-HMF (24 h incubation). Cultures were supplemented with filter-sterilized L-cysteine as indicated. All data are plotted as a mean with standard deviation (n=4). A. 1.0 g l^−1 5-HMF; B. 2.0 g 1^−1 5-HMF.
Tolerance to HMF was tested using 13×100 mm closed tubes containing 4 ml AM1 and 5-HMF as indicated. When appropriate, antibiotics were included for plasmid maintenance. Tubes were inoculated to an initial density of 0.05 OD550nm. Growth was measured after incubation (60 rpm) for 48 h using a Spectronic 20D+ spectrophotometer (Thermo, Waltham, Mass.). To examine the effects of pntAB on furan tolerance, a multiwall plate containing 400 μl of AM1 (and 5-HMF or furfural) per well was inoculated as above. OD(420-580nm bandwidth) was measured for 72 h using a Bioscreen C growth analyzer (Oy Growth Curves, Helsinki, Finland).

Data set [6] relates to E. coli LY180. Type of data set: cell-based, Escherichia coli. As to conditions: amino acid 0.5 mM, 1 g liter^-1 furfural, AM1 medium, 48 hours.
For data set [7], the target named is sulfite reductase (CysIJ) (Escherichia coli, UniProt P38038). Particulars: read-out: Km for NADPH; cited from earlier work.
A further data set has as its target YqhD (Escherichia coli, UniProt Q46856). As to conditions: cited from earlier work.
For a further data set, the target named is DkgA (Escherichia coli, UniProt Q46857). Particulars: read-out: apparent Km for NADPH; cited from earlier work.

Where two headings read alike, the source gives them in different places.

Chain of YqhD (Q46856 whole entry): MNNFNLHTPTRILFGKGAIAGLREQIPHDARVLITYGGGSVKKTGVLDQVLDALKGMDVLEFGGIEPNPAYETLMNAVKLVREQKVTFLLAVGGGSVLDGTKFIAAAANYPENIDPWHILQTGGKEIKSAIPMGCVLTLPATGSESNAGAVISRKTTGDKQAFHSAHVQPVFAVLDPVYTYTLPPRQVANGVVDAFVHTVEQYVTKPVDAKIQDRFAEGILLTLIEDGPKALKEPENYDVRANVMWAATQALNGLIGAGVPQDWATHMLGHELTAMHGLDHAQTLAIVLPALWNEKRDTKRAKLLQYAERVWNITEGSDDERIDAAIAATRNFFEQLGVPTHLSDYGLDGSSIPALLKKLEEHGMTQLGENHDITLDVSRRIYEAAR
Chain of DkgA (Q46857 whole entry): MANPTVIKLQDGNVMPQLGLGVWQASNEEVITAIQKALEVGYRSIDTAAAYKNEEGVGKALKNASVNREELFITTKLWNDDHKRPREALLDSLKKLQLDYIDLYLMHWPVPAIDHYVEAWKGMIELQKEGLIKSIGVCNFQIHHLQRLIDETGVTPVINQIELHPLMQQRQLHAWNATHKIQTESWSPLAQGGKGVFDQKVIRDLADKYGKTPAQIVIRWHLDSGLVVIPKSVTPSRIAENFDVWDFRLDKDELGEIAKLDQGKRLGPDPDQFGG
Chain of sulfite reductase (CysIJ) (P38038 2-599): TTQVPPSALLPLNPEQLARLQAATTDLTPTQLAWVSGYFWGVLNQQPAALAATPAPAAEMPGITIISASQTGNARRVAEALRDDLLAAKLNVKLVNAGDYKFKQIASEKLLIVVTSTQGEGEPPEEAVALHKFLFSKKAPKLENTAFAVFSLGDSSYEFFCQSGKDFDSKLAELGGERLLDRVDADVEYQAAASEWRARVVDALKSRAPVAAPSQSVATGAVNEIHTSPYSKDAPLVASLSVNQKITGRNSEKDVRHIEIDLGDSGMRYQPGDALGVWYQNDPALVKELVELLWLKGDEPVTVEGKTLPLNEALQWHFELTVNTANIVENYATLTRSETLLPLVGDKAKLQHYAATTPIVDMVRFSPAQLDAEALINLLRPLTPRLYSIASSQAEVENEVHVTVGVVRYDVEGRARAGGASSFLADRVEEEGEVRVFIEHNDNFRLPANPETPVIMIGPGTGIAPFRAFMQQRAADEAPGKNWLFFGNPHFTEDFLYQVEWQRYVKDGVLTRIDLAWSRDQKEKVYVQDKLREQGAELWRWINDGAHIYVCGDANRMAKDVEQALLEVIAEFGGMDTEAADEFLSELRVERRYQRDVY
Chain of sulfite reductase (CysIJ) (P17846 2-570, further chain): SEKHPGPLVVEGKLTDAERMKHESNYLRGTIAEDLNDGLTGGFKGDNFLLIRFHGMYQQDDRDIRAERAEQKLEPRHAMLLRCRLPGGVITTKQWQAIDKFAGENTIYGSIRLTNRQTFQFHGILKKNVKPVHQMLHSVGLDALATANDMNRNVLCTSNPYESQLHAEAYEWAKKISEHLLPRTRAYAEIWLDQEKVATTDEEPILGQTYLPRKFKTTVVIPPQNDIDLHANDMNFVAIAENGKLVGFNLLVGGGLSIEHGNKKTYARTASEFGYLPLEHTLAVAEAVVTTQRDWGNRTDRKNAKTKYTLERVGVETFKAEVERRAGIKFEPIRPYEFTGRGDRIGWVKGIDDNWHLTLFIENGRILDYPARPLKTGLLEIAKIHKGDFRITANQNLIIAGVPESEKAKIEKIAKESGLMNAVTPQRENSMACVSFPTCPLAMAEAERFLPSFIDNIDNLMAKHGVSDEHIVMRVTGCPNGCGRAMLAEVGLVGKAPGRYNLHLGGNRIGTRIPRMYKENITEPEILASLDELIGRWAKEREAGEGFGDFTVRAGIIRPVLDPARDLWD

On to `O=Cc1ccco1` [furfural], for which the “growth of LY180 strains other than pTrc99a-pntAB forward” value in the data set on LY180 strains was “substantially stopped growing”. In addition, the “genes with expression altered two-fold or greater” value in the data set on E. coli LY180 [1] (0.5 g liter^-1 furfural, 15 min) is reported as “approximately 400 genes”. For the same compound, the “up-regulation of YqhD and DkgA (mRNA)” value in the data set with E. coli LY180 [1] (addition of furfural, parent LY180) is given as “over 5 fold”. Further, in data set [2], the “furfural in mineral salts medium, by characteristic spectrum” value was “remained unchanged”.
Consider `N[C@@H](CO)C(=O)O` [serine], for which the “furfural resistance (growth of LY180) with individual amino acid” value (“furfural resistance (growth of LY180)” for short) with E. coli LY180 [3] (1 g liter^-1 furfural) is “improved furfural resistance”.
Take `OCC(O)CO` [glycerol]: the “effect on furfural tolerance” value in the data set on E. coli LY180 [3] (glycerol 1.0 to 20 g liter^-1, data not included) is recorded as “no effect”.
For the compound `NCCS(=O)(=O)O` [taurine], the “relief of furfural inhibition of growth by alternative sulfur source” value (“relief of furfural inhibition of growth” below) with E. coli LY180 [3] (1 g liter^-1 furfural) was “not effective”.
Turning to `O=Cc1ccc(CO)o1` [5-HMF, 5-hydroxymethyl furfural], in the data set with LY180 [4], the “growth of LY180” value is reported as “completely inhibited”. Further, the “effect on cell yield or ethanol yield of EMFR9” value with EMFR9 (1.0 g l^-1 5-HMF, fermentation) is on record as “no detrimental effect”. For the same compound, in the data set on EMFR9 (2.5 g 5-HMF l^-1, fermentation), the “ethanol production and growth of EMFR9” value is listed as “slowed”; the “time to completion of ethanol production and growth of EMFR9” value is recorded as 96 h. Moreover, in the data set with LY180 [5] (1 g l^-1 5-HMF, tube cultures, 24 h), the “growth of LY180” value was “partially inhibited”.
Turning to `CSCC[C@H](N)C(=O)O` [methionine], the “furfural resistance (growth of LY180)” value in the data set with E. coli LY180 [3] (1 g liter^-1 furfural) is “improved furfural resistance”.
Consider `N[C@@H](CS)C(=O)O` [cysteine, L-cysteine], for which, in the data set with E. coli LY180 [3] (1 g liter^-1 furfural (10 mM)), the “protective concentration against furfural” value is reported as 0.05 mM. Besides, the “relief of furfural inhibition of growth” value in the data set on E. coli LY180 [3] (1 g liter^-1 furfural) is “effective”. Also, the “furfural resistance (growth of LY180)” value in the data set with E. coli LY180 [3] (1 g liter^-1 furfural) is “improved furfural resistance”; in the data set on E. coli LY180 [6], “most effective”. Moreover, the “improvement in furfural resistance” value in the data set on E. coli LY180 [3] (cysteine 0.01 mM) was “No measurable improvement”. The “density to which LY180 grew” value with E. coli LY180 [3] (cysteine 0.05 mM, 1 g liter^-1 furfural) worked out at 0.8 g/L. Further, the “growth of LY180 with cysteine supplement” value is “completely restored” in the data set with LY180 [5] (100 uM cysteine, 1 g l^-1 5-HMF) and “not restored” with LY180 [5] (100 uM or 1000 uM cysteine, 2.5 g l^-1 5-HMF). For the same compound, in the data set on LY180 [5] (LY180), the “effect of cysteine supplements on the MIC for 5-HMF” value is given as “did not increase”.
On to `O=S(O)(O)=S` [thiosulfate, sodium thiosulfate], for which, in the data set with E. coli LY180 [3] (1 g liter^-1 furfural), the “relief of furfural inhibition of growth” value is reported as “effective”.
Turning to `N=C(N)NCCC[C@H](N)C(=O)O` [arginine], the “furfural resistance (growth of LY180)” value in the data set on E. coli LY180 [3] (1 g liter^-1 furfural) was “improved furfural resistance”.
On to `N[C@H](CS)C(=O)O` [D-cysteine], for which the “relief of furfural inhibition of growth” value with E. coli LY180 [3] (1 g liter^-1 furfural) is “effective”.
With `N[C@@H](Cc1c[nH]cn1)C(=O)O` [histidine], the “furfural resistance (growth of LY180)” value with E. coli LY180 [3] (1 g liter^-1 furfural) is reported as “improved furfural resistance”.
For `NC(=O)C1=CN([C@@H]2O[C@H](COP(=O)(O)OP(=O)(O)OC[C@H]3O[C@@H](n4cnc5c(N)ncnc54)[C@H](OP(=O)(O)O)[C@@H]3O)[C@@H](O)[C@H]2O)C=CC1` [NADPH], the Km is 80 µM in data set [7], 8 µM at YqhD (read-out: Km for NADPH), 8 µM at YqhD (read-out: apparent Km for NADPH) and 23 µM on DkgA.

By Km is commonly meant the substrate concentration at which the rate is half of its maximum.
